Reference: ChEMBL document CHEMBL4311992, “Discovery of 3-(((9H-purin-6-yl)amino)methyl)-4,6-dimethylpyridin-2(1H)-one derivatives as novel tubulin polymerization inhibitors for treatment of cancer” (Eur J Med Chem, 2019)
Calls of active or inactive are those of the source. The rule behind the calls is not given here.

Assays:
[1] = biological target: Mitogen-activated protein kinase kinase kinase kinase 2 (Homo sapiens) (UniProt Q12851); assay: Inhibition of recombinant human GCK assessed as residual activity at 10 uM using myelin basic protein as substrate measured after 40 mins in presence of [gamma33P]ATP by scintillation counting method
Chain of Mitogen-activated protein kinase kinase kinase kinase 2 (Homo sapiens) (Q12851 whole entry): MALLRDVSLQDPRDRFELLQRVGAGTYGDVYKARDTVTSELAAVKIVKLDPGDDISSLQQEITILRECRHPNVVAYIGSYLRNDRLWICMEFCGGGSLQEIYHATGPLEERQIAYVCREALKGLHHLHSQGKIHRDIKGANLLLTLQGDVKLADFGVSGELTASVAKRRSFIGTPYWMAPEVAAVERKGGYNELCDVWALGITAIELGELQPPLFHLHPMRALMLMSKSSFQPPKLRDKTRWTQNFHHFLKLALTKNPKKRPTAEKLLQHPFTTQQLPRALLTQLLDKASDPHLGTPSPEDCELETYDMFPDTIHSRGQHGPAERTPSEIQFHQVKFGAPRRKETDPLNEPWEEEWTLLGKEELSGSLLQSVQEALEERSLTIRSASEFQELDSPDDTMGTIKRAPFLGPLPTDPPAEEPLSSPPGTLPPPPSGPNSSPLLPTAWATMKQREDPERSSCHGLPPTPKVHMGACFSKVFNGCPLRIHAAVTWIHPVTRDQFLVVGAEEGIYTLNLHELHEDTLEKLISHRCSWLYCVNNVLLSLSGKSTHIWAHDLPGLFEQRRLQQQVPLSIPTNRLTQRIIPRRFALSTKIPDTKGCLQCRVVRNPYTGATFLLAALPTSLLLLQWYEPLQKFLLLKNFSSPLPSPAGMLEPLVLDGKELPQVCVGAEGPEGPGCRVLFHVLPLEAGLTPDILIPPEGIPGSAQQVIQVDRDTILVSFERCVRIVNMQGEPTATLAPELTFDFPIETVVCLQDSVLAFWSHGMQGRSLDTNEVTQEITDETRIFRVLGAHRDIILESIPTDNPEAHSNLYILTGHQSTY

HCT-116 [2] = assay: Induction of apoptosis in human HCT116 cells assessed as increase in Bax expression up to 200 nM measured after 48 hrs by Western blot analysis; type: functional, cell-based
[3] = biological target: Dual specificity protein kinase CLK2 (Homo sapiens) (UniProt P49760); assay: Inhibition of recombinant human CLK2 (138 to end residues) assessed as residual activity at 10 uM using YRRAAVPPSPSLSRHSSPHQS(p)EDEEE as substrate measured after 40 mins in presence of [gamma33P]ATP by scintillation counting method
Chain of Dual specificity protein kinase CLK2 (Homo sapiens) (P49760 whole entry, looked up): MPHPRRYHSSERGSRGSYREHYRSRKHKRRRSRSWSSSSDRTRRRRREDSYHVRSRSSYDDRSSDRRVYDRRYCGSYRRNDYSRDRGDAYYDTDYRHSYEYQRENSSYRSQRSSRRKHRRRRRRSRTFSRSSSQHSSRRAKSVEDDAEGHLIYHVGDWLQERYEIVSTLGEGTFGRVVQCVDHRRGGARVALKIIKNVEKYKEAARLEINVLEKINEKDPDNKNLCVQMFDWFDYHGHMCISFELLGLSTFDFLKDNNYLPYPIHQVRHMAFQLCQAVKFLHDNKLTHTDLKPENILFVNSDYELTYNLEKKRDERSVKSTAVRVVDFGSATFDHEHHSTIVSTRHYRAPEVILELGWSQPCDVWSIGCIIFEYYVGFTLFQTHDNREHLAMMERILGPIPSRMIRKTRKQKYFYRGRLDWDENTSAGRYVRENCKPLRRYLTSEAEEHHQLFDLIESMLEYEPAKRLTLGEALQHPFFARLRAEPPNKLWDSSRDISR

[4] = system: Serine/threonine-protein kinase Nek4 (Homo sapiens), P51957 [P225A]; assay: Inhibition of recombinant full-length human NEK4 P225A mutant assessed as residual activity at 10 uM using myelin basic protein as substrate measured after 40 mins in presence of [gamma33P]ATP by scintillation counting method
[5] = biological target: Bone morphogenetic protein receptor type-2 (Homo sapiens) (UniProt Q13873); assay: Inhibition of recombinant human BMPR2 (172 to 734 residues) assessed as residual activity at 10 uM using myelin basic protein as substrate measured after 120 mins in presence of [gamma33P]ATP by scintillation counting method
MDA-MB-231 = assay: Antiproliferative activity against human MDA-MB-231 cells assessed as reduction in cell viability after 72 hrs by MTT assay; type: functional, cell-based; settings: MDA-MB-231, 72 h
[6] = biological target: Mitogen-activated protein kinase kinase kinase kinase 4 (Homo sapiens) (UniProt O95819); assay: Inhibition of recombinant human MAP4K4 (1 to 328 residues) assessed as residual activity at 10 uM using RLGRDKYKTLRQIRQ as substrate measured after 40 mins in presence of [gamma33P]ATP by scintillation counting method
Mus musculus = species: Mus musculus; assay: Inhibition of recombinant mouse ARG M982V/A562 mutant (27 to end residues) assessed as residual activity at 10 uM using EAIYAAPFAKKK as substrate measured after 40 mins in presence of [gamma33P]ATP by scintillation counting method
[7] = biological target: Serine/threonine-protein kinase PLK3 (Homo sapiens) (UniProt Q9H4B4); assay: Inhibition of recombinant human Plk3 (19 to 301 residues) assessed as residual activity at 10 uM using casein as substrate measured after 40 mins in presence of [gamma33P]ATP by scintillation counting method
[8] = biological target: Tau-tubulin kinase 1 (Homo sapiens) (UniProt Q5TCY1); assay: Inhibition of human TTBK1 (1 to 479 residues) using Casein as substrate measured after 40 mins in presence of [gamma33P]ATP by scintillation counting method; design: scale not given: the % may be the effect or the level left
[9] = biological target: Serine/threonine-protein kinase 32A (Homo sapiens) (UniProt Q8WU08); assay: Inhibition of recombinant full-length human STK32A assessed as residual activity at 10 uM using casein as substrate measured after 120 mins in presence of [gamma33P]ATP by scintillation counting method
Chain of Serine/threonine-protein kinase 32A (Homo sapiens) (Q8WU08 whole entry): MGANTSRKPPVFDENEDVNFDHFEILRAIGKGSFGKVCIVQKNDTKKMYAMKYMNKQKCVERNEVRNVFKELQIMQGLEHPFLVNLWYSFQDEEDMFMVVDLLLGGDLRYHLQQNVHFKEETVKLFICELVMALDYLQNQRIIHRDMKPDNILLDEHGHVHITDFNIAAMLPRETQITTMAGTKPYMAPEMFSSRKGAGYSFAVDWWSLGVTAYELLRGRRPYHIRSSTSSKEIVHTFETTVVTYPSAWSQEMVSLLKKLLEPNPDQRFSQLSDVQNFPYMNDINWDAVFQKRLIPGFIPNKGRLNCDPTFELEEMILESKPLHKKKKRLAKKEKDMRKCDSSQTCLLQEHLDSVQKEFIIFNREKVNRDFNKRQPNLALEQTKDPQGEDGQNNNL

[10] = biological target: Serine/threonine-protein kinase MRCK gamma (Homo sapiens) (UniProt Q6DT37); assay: Inhibition of recombinant human MRCKgamma assessed as residual activity at 10 uM using KKRNRTLTV as substrate measured after 40 mins in presence of [gamma33P]ATP by scintillation counting method
[11] = biological target: Platelet-derived growth factor receptor beta (Homo sapiens) (UniProt P09619); assay: Inhibition of recombinant human PDGFRbeta (557 to end residues) assessed as residual activity at 10 uM using poly(Glu, Tyr) 4:1 as substrate measured after 40 mins in presence of [gamma33P]ATP by scintillation counting method
Chain of Platelet-derived growth factor receptor beta (Homo sapiens) (P09619 whole entry, the tested form may be a part): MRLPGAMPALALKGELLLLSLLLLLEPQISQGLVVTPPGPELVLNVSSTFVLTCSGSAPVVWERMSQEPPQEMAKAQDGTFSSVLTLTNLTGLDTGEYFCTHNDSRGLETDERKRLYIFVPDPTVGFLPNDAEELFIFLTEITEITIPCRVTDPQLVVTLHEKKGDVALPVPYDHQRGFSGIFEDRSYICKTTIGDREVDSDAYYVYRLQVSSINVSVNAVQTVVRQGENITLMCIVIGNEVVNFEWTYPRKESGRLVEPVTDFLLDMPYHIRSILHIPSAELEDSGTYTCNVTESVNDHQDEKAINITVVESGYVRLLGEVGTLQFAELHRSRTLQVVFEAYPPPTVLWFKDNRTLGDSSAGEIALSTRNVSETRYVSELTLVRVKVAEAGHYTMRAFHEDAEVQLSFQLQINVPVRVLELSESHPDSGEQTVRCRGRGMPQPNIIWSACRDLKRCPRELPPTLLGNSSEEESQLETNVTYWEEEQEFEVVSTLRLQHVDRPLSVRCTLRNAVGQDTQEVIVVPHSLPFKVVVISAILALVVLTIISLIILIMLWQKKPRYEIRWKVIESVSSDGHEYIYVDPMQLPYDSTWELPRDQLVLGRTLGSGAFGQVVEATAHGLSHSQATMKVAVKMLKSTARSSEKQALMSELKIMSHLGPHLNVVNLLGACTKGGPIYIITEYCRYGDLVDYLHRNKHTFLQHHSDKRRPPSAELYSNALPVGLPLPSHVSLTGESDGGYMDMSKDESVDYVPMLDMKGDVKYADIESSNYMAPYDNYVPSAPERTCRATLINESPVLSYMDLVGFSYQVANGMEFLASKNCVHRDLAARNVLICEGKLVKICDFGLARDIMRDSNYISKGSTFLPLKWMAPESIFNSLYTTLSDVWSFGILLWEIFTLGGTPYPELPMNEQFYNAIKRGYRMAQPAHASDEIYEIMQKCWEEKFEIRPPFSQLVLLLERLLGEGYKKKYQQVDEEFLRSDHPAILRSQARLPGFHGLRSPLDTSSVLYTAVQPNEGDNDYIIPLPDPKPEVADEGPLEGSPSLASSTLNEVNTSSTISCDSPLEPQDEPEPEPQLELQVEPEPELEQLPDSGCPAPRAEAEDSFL

[12] = biological target: Serine/threonine-protein kinase TAO2 (Homo sapiens) (UniProt Q9UL54); assay: Inhibition of human TAO2 (1 to 320 residues) using myelin basic protein as substrate measured after 40 mins in presence of [gamma33P]ATP by scintillation counting method; design: scale not given: the % may be the effect or the level left
[13] = biological target: Casein kinase I isoform epsilon (Homo sapiens) (UniProt P49674); assay: Inhibition of human CK1epsilon assessed as residual activity at 10 uM using KRRRALS(p)VASLPGL as substrate measured after 120 mins in presence of [gamma33P]ATP by scintillation counting method
Chain of Casein kinase I isoform epsilon (Homo sapiens) (P49674 whole entry, looked up, canonical isoform): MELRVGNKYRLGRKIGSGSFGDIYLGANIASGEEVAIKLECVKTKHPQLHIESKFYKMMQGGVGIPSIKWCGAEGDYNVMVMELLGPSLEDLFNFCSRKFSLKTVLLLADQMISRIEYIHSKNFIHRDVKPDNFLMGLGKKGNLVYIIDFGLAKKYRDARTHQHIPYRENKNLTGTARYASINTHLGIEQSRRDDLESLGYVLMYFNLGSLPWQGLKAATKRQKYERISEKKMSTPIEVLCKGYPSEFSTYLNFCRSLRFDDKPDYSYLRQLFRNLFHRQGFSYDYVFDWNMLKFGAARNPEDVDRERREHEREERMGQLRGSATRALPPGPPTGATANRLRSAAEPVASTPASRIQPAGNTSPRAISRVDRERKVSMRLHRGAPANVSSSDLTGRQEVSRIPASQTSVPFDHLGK

[14] = biological target: Serine/threonine-protein kinase/endoribonuclease IRE1 (Homo sapiens) (UniProt O75460); assay: Inhibition of recombinant human IRE1 (465 to end residues) assessed as residual activity at 10 uM using myelin basic protein as substrate measured after 40 mins in presence of [gamma33P]ATP by scintillation counting method
[15] = biological target: Tyrosine-protein kinase BTK (Homo sapiens) (UniProt Q06187); assay: Inhibition of full-length recombinant human BTK assessed as residual activity at 10 uM using KVEKIGEGTYGVVYK as substrate measured after 40 mins in presence of [gamma33P]ATP by scintillation counting method
Homo sapiens [16] = species: Homo sapiens; assay: Inhibition of recombinant full-length human ATRIP/ATR M211T mutant assessed as residual activity at 10 uM using GST-cMyc-p53 as substrate measured after 40 mins by fluorescence assay
[17] = biological target: Activated CDC42 kinase 1 (Homo sapiens) (UniProt Q07912); assay: Inhibition of recombinant human ACK1 (1 to 389 residues) assessed as residual activity at 10 uM using EFPIYDFLPAKKK as substrate measured after 40 mins in presence of [gamma33P]ATP by scintillation counting method
[18] = biological target: Dual specificity mitogen-activated protein kinase kinase 4 (Homo sapiens) (UniProt P45985); assay: Inhibition of recombinant human MKK4 (34 to end residues) assessed as residual activity at 10 uM using unactive JNK1a1 as substrate measured after 40 mins in presence of [gamma33P]ATP by scintillation counting method
[19] = biological target: Phosphatidylinositol 3-kinase C2 domain-containing subunit gamma (Homo sapiens) (UniProt O75747); assay: Inhibition of recombinant human PI3KC2gamma (468 to 1203 residues) assessed as residual activity at 10 uM using phosphatidylinositol as substrate measured after 40 mins by HTRF assay
Chain of Phosphatidylinositol 3-kinase C2 domain-containing subunit gamma (Homo sapiens) (O75747 whole entry, the tested form may be a part): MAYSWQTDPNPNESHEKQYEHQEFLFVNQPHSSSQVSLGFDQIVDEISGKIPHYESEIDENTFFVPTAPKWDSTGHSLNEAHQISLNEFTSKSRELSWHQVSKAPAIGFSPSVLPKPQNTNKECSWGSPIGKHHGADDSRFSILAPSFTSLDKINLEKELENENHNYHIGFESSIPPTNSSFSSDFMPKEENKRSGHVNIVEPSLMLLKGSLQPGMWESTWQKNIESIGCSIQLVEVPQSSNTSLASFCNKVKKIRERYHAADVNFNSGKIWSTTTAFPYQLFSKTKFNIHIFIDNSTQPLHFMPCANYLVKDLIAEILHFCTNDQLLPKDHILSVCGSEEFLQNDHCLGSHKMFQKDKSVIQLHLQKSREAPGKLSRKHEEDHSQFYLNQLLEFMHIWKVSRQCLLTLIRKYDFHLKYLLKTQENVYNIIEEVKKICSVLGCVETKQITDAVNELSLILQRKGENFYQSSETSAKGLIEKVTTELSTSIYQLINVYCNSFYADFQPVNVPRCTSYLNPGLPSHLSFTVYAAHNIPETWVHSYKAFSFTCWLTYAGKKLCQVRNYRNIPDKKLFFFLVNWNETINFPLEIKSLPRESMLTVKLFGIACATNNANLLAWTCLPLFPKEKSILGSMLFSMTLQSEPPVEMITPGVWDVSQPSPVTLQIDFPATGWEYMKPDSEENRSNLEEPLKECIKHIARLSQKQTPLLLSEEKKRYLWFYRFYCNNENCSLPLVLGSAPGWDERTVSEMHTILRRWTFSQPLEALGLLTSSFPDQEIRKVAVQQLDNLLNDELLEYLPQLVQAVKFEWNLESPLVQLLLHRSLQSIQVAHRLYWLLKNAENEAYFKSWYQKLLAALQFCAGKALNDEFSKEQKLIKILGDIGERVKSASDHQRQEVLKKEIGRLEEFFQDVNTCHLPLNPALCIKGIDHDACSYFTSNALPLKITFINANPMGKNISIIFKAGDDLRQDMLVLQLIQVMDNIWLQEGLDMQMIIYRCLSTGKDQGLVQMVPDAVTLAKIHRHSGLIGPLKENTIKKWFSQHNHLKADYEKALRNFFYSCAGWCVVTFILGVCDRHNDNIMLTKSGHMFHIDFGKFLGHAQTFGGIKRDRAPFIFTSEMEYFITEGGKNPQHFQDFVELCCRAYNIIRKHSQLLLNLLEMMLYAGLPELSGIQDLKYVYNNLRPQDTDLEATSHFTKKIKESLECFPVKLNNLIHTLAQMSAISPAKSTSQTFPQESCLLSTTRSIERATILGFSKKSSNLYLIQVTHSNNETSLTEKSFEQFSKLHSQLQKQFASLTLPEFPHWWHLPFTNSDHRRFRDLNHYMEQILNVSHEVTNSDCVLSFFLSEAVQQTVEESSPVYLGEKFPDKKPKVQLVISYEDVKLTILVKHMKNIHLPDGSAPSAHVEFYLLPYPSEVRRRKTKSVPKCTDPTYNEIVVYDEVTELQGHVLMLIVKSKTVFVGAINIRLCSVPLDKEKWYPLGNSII

HCT-116 [20] = assay: Induction of cell cycle arrest in human HCT116 cells assessed as accumulation at G2/M phase after 24 hrs by propidium iodide-staining based flow cytometry; type: functional
Homo sapiens [21] = species: Homo sapiens; assay: Inhibition of recombinant human PRAK R291E mutant assessed as residual activity at 10 uM using KKLRRTLSVA as substrate measured after 40 mins in presence of [gamma33P]ATP by scintillation counting method
[22] = biological target: Serine/threonine-protein kinase WNK1 (Homo sapiens) (UniProt Q9H4A3); assay: Inhibition of human WNK1 (1 to 491 residues) using myelin basic protein as substrate measured after 120 mins in presence of [gamma33P]ATP by scintillation counting method; design: scale not given: the % may be the effect or the level left
[23] = system: Dual specificity protein kinase TTK (Homo sapiens), P33981 [S389A]; assay: Inhibition of recombinant full-length human TTK S389A mutant assessed as residual activity at 10 uM using MBP as substrate measured after 40 mins in presence of [gamma33P]ATP by scintillation counting method

Cc1cc(C)c(CNc2nc(Cl)nc3c2ncn3C2CCCC2)c(=O)[nH]1
Activity [1]: 100%
Activity (HCT-116 [2]): Active
Activity [3]: 132%
Activity [4]: 104%
Activity [5]: 109%
IC50 (MDA-MB-231): 0.201 µM
Activity [6]: 114%
Activity (Mus musculus): 106%
Activity [7]: 99.5%
Activity [8]: 102%
Activity [9]: 100%
Activity [10]: 122%
Activity [11]: 117%
Activity [12]: 104%
Activity [13]: 100%
Activity [14]: 101%
Activity [15]: 85%
Activity (Homo sapiens [16]): 106%
Activity [17]: 118%
Activity [18]: 133%
Activity [19]: 100%
Activity (HCT-116 [20]): Dose-dependent effect
Activity (Homo sapiens [21]): 125%
Activity [22]: 104%
Activity [23]: 99.5%
